In patent US20230331720A1, “MEDIUM- OR MACRO-CYCLIC BENZYL-SUBSTITUTED HETEROCYCLE DERIVATIVES AND THEIR USES AS OREXIN-2 RECEPTOR AGONISTS” (Orexia Therapeutics Limited, priority 2020, published 2023):

These molecules were tested against T1, human orexin type 2 receptor (hOX2R) (Homo sapiens, UniProt O43614) (assay: Orexin type 2 receptor agonist activity, intracellular Ca2+ (FLIPR TETRA)). Conditions: CHO cells expressing hOX2R; Ca2+ fluorescence area; read-out: hOx2 pEC50 (converted).
T1 construct: expressed in transfected cells
T1 sequence (O43614 1-444): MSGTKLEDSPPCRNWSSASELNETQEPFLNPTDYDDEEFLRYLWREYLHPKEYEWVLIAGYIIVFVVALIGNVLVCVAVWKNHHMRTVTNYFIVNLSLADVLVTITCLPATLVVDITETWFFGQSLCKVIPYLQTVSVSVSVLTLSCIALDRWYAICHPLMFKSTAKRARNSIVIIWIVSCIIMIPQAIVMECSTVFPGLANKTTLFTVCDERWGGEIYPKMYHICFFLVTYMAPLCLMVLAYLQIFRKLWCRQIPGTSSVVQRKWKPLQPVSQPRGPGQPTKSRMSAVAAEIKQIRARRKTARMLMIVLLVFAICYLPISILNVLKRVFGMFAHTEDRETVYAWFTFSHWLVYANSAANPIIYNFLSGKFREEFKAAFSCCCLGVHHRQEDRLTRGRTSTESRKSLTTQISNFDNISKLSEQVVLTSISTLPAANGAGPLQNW
Type: cell-based
Method: Stable cell line generation. Obtainment of cells stably expressing either human orexin type 2 or human orexin type 1 receptor; to obtain a stable cell line the Orexin receptor cDNA was inserted into pcDNA3.1(+) plasmid vector and clones identified by G418 drug resistance selection. […] A single clone for OX2R-CHO and OX1R-CHO were grown in bulk and frozen to generate a cell bank for routine screening.
Measurement of orexin type 2 receptor agonist activity. Chinese hamster ovary (CHO) cells expressing human orexin type 2 receptor (hOX2R) or human orexin type 1 receptor (hOX1R) were seeded in each well of 384 well black clear bottom plates (BD Flacon) at 10,000 cells per well and cultured for 24 hr in an Ham's F12 (Gibco) medium containing 10% fetal calf serum (Sigma Aldrich) under the conditions of 37° C., 5% CO2. After removal of the medium, 50 μl of assay buffer 1 (0.1% bovine serum albumin (Sigma Aldrich), 20 mM HEPES (Molecular Dimensions), […] probenecid (Sigma Aldrich), 1× Calcium 5 dye (Molecular Devices) in Hank's balanced salt solution (Invitrogen)) was added, and the cells were incubated for 60 min under the conditions of 37° C., 5% CO2. A test compound was dissolved in dimethyl sulfoxide (Sigma Aldrich) to 10 mM, and then diluted with assay buffer 2 (20 mM HEPES, Hank's balanced salt solution, 0.1% bovine serum albumin). For the reaction, a test compound solution (10 μl) was added using Fluorescent Imaging Plate Reader TETRA (FLIPR TETRA: manufactured by Molecular Devices), a fluorescence value (excitation wavelength 488 nm, measurement wavelength 570 nm) of each well was measured every one second for 2 min, and the agonist activity was determined using the area of the fluorescence value as an indicator of intracellular Ca^2+ concentration. The agonist activity of the test compound was calculated assuming that the fluorescence value of the well added with only the dilution buffer was 0% and the fluorescence value of the well added with 10 nM human orexin A (Tocris) buffer was 100%. As used herein, Emax indicates the value at 10 μM concentration when orexin A is converted to a full agonist (maximum value of agonist activity: 100%).

Row | Compound | EC50
1 | CS(=O)(=O)NC1CCCN2C(=O)CCCCc3ccccc3-c3cccc(c3)CC12 (racemic) [Compound A1-1, N-(5-oxo-4(2,1)-piperidina-1(1,2),2(1,3)-dibenzenacyclononaphane-4^3-yl)-methanesulfonamide] | 100 to 1000 nM
2 | CN1CCOc2ccccc2-c2cccc(c2)CC2C(NS(C)(=O)=O)CCCN2C1=O (racemic) [Compound A1-2, N-(6-methyl-5-oxo-9-oxa-6-aza-4(2,1)-piperidina-1(1,2),2(1,3)-dibenzena-cyclo-nonaphane-4^3-yl)methanesulfonamide] | 100 to 1000 nM
3 | CS(=O)(=O)N[C@@H]1CCCN2C(=O)CCCOc3ccccc3-c3cccc(c3)C[C@H]12 (racemic) [Compound A1-6, N-(5-oxo-9-oxa-4(2,1)-piperidina-1(1,2),2(1,3)-dibenzenacyclononaphane-4^3-yl)methanesulfonamide] | 10 to 100 nM
4 | CS(=O)(=O)NC1CCN2C(=O)N3CC(CCc4ccccc4-c4cccc(c4)CC12)C3 (racemic) [Compound A1-13, N-(5-oxo-4-(2,1)-pyrrolidina-6-(1.3)-azetidina-1-(1,2),2-(1,3)-dibenzena-cyclooctaphane-4^3-yl)methanesulfonamide] | 10 to 100 nM
5 | CS(=O)(=O)NC1CCN2C(=O)N3CC(CCCc4ccccc4-c4cccc(c4)CC12)C3 (racemic) [Compound A1-14, N-(5-oxo-4(2,1)-pyrrolidina-6(1,3)-azetidina-1(1,2),2(1,3)-dibenzenacyclo-nonaphane-4^3-yl)methanesulfonamide] | 10 to 100 nM
6 | CS(=O)(=O)NC1CCCN2C(=O)NCCOc3ccccc3-c3cccc(c3)CC12 (racemic) [Compound A1-15, N-(5-oxo-9-oxa-6-aza-4(2,1)-piperidina-1(1,2),2(1,3)-dibenzenacyclo-nonaphane-4^3-yl)methanesulfonamide] | 1 to 10 nM
7 | CCS(=O)(=O)NC1CCN2C(=O)NCCCCCc3c(F)cc(F)cc3-c3cccc(c3)CC12 (racemic) [Compound A1-16, N-(1^3,1^5-difluoro-5-oxo-6-aza-4(2,1)-pyrrolidina-1-(1,2),2-(1,3)-dibenzena-cycloundecaphane-4^3-yl)ethanesulfonamide] | 10 to 100 nM
8 | CCS(=O)(=O)NC1CCN2C(=O)N(C)CCCCCc3ccccc3-c3cccc(c3)CC12 (racemic) [Compound A1-18, N-(6-methyl-5-oxo-6-aza-4(2,1)-pyrrolidina-1(1,2),2(1,3)-dibenzenacyclo-undecaphane-43-yl)ethanesulfonamide] | 1 to 10 nM
9 | CCS(=O)(=O)NC1CCN2C(=O)CCCc3ccccc3-c3cccc(c3)CC12 (racemic) [Compound A1-19, N-(5-oxo-4(2,1)-pyrrolidina-1(1,2),2(1,3)-dibenzenacyclooctaphane-4^3-yl)ethanesulfonamide] | 100 to 1000 nM
10 | CCS(=O)(=O)NC1CCN2C(=O)CCOCCCc3ccccc3-c3cccc(c3)CC12 (racemic) [Compound A1-20, N-(5-oxo-8-oxa-4(2,1)-pyrrolidina-1(1,2),2(1,3)-dibenzenacyclo-undecaphane-4^3-yl)ethanesulfonamide] | 100 to 1000 nM
11 | CCS(=O)(=O)NC1CCN2C(=O)CC/C=C\c3ccccc3-c3cccc(c3)CC12 (racemic) [Compound A1-26, (E/Z)—N-(5-oxo-4(2,1)-pyrrolidina-1(1,2),2(1,3)-dibenzenacyclononaphan-8-en-4^3-yl)ethanesulfonamide] | 100 to 1000 nM
12 | CS(=O)(=O)NC1CCCN2C(=O)NCCCCCc3ccccc3-c3cccc(c3)CC12 (racemic) [Compound A1-27, N-(5-oxo-6-aza-4(2,1)-piperidina-1(1,2),2(1.3)-dibenzenacyclo-undecaphane-4^3-yl)methanesulfonamide] | 1 to 10 nM
13 | CS(=O)(=O)NC1CCCN2C(=O)CCCCCCc3ccccc3-c3cccc(c3)CC12 (racemic) [Compound A1-28, N-(5-oxo-4(2,1)-piperidina-1(1,2),2(1,3)-dibenzenacycloundecaphane-4^3-yl)methanesulfonamide] | 10 to 100 nM
14 | CCS(=O)(=O)NC1CCN2C(=O)CCCCCCc3c(F)cc(F)cc3-c3cccc(c3)CC12 (racemic) [Compound A1-29, N-(1^3,1^5-difluoro-5-oxo-4(2,1)-pyrrolidina-1(1,2),2(1,3)-dibenzenacyclo-undecaphane-4^3-yl)ethanesulfonamide] | 100 to 1000 nM

Results, then the molecule that gave them:

Row | EC50 | Compound
15 | 100 to 1000 nM | CCS(=O)(=O)NC1CCN2C(=O)CCC/C=C/c3ccccc3-c3cccc(c3)CC12 (mixture of isomers) [Compound A1-36, (E/Z)—N-(5-oxo-4(2,1)-pyrrolidina-1(1,2),2(1,3)-dibenzenacyclodecaphan-9-en-4^3-yl)ethanesulfonamide]
16 | 10 to 100 nM | CCS(=O)(=O)NC1CCN2C(=O)NCCOc3ccccc3-c3cccc(c3)CC12 (racemic) [Compound A1-30, N-(5-oxo-9-oxa-6-aza-4(2,1)-pyrrolidina-1(1,2),2(1,3)-dibenzenacyclo-nonaphane-4^3-yl)ethanesulfonamide]
17 | 100 to 1000 nM | CCS(=O)(=O)NC1CCN2C(=O)CCCOc3ccccc3-c3cccc(c3)CC12 (racemic) [Compound A1-31, N-(5-oxo-9-oxa-4(2,1)-pyrrolidina-1(1.2),2(1,3)-dibenzenacyclo-nonaphane-4^3-yl)ethanesulfonamide]
18 | 1 to 10 nM | CCS(=O)(=O)NC1CCN2C(=O)CCCCCCc3ccccc3-c3cccc(c3)CC12 (racemic) [Compound A1-39, N-(5-oxo-4(2,1)-pyrrolidina-1(1,2),2(1,3)-dibenzenacycloundecaphane-4^3-yl)ethanesulfonamide]
19 | 10 to 100 nM | CCS(=O)(=O)NC1CCN2C(=O)CCC/C=C/Cc3ccccc3-c3cccc(c3)CC12 (racemic) [Compound A1-41, (E/Z)—N-(5-oxo-4(2,1)-pyrrolidina-1(1.2),2(1,3)-dibenzenacyclo-undecaphan-9-en-4^3-yl)ethanesulfonamide]
20 | 10 to 100 nM | CCS(=O)(=O)NC1CCN2C(=O)CCCCCc3ccccc3-c3cccc(c3)CC12 (racemic) [Compound A1-48, N-(5-oxo-4(2,1)-pyrrolidina-1(1,2),2(1,3)-dibenzenacyclodecaphane-4^3-yl)ethanesulfonamide]
21 | 10 to 100 nM | CCS(=O)(=O)NC1CCN2C(=O)NCCCCc3ccccc3-c3cccc(c3)CC12 (racemic) [Compound A1-49, N-(5-oxo-6-aza-4(2,1)-pyrrolidina-1(1,2),2(1,3)-dibenzenacyclodecaphane-4^3-yl)ethanesulfonamide]
22 | 1 to 10 nM | CCS(=O)(=O)NC1CCN2C(=O)NCCCCCc3ccccc3-c3cccc(c3)CC12 (racemic) [Compound A1-50, N-(5-oxo-6-aza-4(2,1)-pyrrolidina-1(1,2),2(1,3)-dibenzenacyclo-undecaphane-43-yl)ethanesulfonamide]
23 | 10 to 100 nM | CCS(=O)(=O)NC1CCN2C(=O)NC/C=C/Cc3ccccc3-c3cccc(c3)CC12 (racemic) [Compound A1-51, (E/Z)—N-(5-oxo-6-aza-4(2,1)-pyrrolidina-1(1,2),2(1.3)-dibenzenacyclo-decaphan-8-en4^3-yl)ethanesulfonamide]
24 | 1 to 10 nM | CCS(=O)(=O)NC1CCN2C(=O)NCC/C=C/Cc3ccccc3-c3cccc(c3)CC12 (racemic) [Compound A1-52, (E/Z)—N-(5-oxo-6-aza-4(2,1)-pyrrolidina-1(1,2),2(1.3)-dibenzenacyclo-undecaphan-9-en-43-yl)ethanesulfonamide]
25 | 10 to 100 nM | CCS(=O)(=O)NC1CCN2C(=O)CC/C=C/Cc3ccccc3-c3cccc(c3)CC12 (racemic) [Compound A1-53, (E/Z)—N-(5-oxo-4(2,1)-pyrrolidina-1(1,2),2(1,3)-dibenzenacyclodecaphan-8-en-4^3-yl)ethanesulfonamide]
26 | 10 to 100 nM | CCS(=O)(=O)NC1CCN2C(=O)OCCCCCc3ccccc3-c3cccc(c3)CC12 (racemic) [Compound A1-54, N-(5-oxo-6-oxa-4(2,1)-pyrrolidina-1(1,2),2(1.3)-dibenzenacyclo-undecaphane-4^3-yl)ethanesulfonamide]
27 | 100 to 1000 nM | CCS(=O)(=O)NC1CCN2C(=O)OCC/C=C\Cc3ccccc3-c3cccc(c3)CC12 (racemic) [Compound A1-56, (E/Z)—N-(5-oxo-6-oxa-4(2,1)-pyrrolidina-1(1,2),2(1,3)-dibenzenacyclo-undecaphan-9-en-4^3-yl)ethanesulfonamide]
